Here are results for six compounds from patent US10752584B2 (EMORY UNIVERSITY, priority 2016, dated 2020).

In one data set the test system is wild type HBV. Description: Anti-HBV assay in AD-38 cell line. The format is cell-based. Conditions: Hepatitis B virus, AD-38 cells, HBV in culture supernatant; for EC50: read-out: Anti-HBV activity EC50. How it is done: The anti-HBV activity of the compounds was determined by treating the AD-38 cell line carrying wild type HBV under the control of tetracycline (see Ladner S. K., Otto M. J., Barker C. S., Zaifert K., Wang G. H., Guo J. T., Seeger C. & King R. W. Antimicrob. Agents Chemother. 1997, 41, 1715-20). Removal of tetracycline from the medium [Tet (−)] results in the production of HBV. The levels of HBV in the culture supernatant fluids from cells treated with the compounds were compared with that of the untreated controls. Control cultures with tetracycline [Tet (+)] were also maintained to determine the basal levels of HBV expression. 3TC was included as positive control.
The median effective concentrations (EC50) ranges of several of the compounds described herein against HBV are shown in Table 3: […]

The subject of another data set is HepG2 cells. Description: Lactic acid production in HepG2 cells. It counts as cell-based. The following applies: 14-day assay, 10 μM. How it is done: To measure the effects of the compounds on lactic acid production, HepG2 cells from a stock culture were diluted and plated in 12-well culture plates at 2.5×10^4 cells per well. Various concentrations (0 μM, 0.1 μM, 1 μM, 10 μM and 100 μM) of compound were added, and the cultures were incubated at 37° C. in a humidified 5% CO2 atmosphere for 4 days. At day 4, the number of cells in each well was determined and the culture medium collected. The culture medium was then filtered, and the lactic acid content in the medium was determined using a colorimetric lactic acid assay (Sigma-Aldrich). Since lactic acid product can be considered a marker for impaired mitochondrial function, elevated levels of lactic acid production detected in cells grown in the presence of test compounds would indicate a drug-induced cytotoxic effect.
(§1) The effect of compounds 7 and 9 on the levels of mitochondrial and nuclear DNA, and lactic acid production was evaluated in HepG2 cells (14-day assay), and the data is tabulated below in Table 2: […]

Data set [1] concerns nuclear DNA in HepG2 cells. Nature of the data set: Mitochondrial toxicity assay in HepG2 cells: nuclear DNA. The format is cell-based.
Source text: (§2) A real-time PCR assay to accurately quantify mitochondrial DNA content has been developed (see Stuyver L J, Lostia S, Adams M, Mathew J S, Pai B S, Grier J, Tharnish P M, Choi Y, Chong Y, Choo H, Chu C K, Otto M J, Schinazi R F. Antiviral activities and cellular toxicities of modified 2′,3′-dideoxy-2′,3′-didehydrocytidine analogs. Antimicrob. Agents Chemother. 2002; 46: 3854-60). This assay was used in all studies described in this application that determine the effect of compounds on mitochondrial DNA content. In this assay, low-passage-number HepG2 cells were seeded at 5,000 cells/well in collagen-coated 96-well plates. Test compounds were added to the medium to obtain final concentrations of 0 μM, 0.1 μM, 10 μM and 100 μM. On culture day 7, cellular nucleic acids were prepared by using commercially available columns (RNeasy 96 kit; Qiagen). […] The mitochondrial cytochrome c oxidase subunit II (COXII) gene and the β-actin or rRNA gene were amplified from 5 μl of the eluted nucleic acids using a multiplex Q-PCR protocol with suitable primers and probes for both target and reference amplifications. For COXII the following sense, probe and antisense primers were used, respectively: 5′-TGCCCGCCATCATCCTA-3′, 5′-tetrachloro-6-carboxyfluorescein-[…]-TAMRA-3′ and 5′-[…]-3′. For exon 3 of the β-actin gene (GenBank accession number E01094) the sense, probe, and antisense primers are 5′-GCGCGGCTACAGCTTCA-3′, 5′-6-[…]-3′ and 5′-[…]-3′, respectively. The primers and probes for the rRNA gene are commercially available from Applied Biosystems. Since equal amplification efficiencies are obtained for all genes, the comparative CT method was used to investigate potential inhibition of mitochondrial DNA synthesis. The comparative CT method uses arithmetic formulas in which the amount of target (COXII gene) is normalized to the amount of an endogenous reference (the β-actin or rRNA gene) and is relative to a calibrator (a control with no drug at day 7). The arithmetic formula for this approach is given by 2−ΔΔCT, where ΔΔCT is (CT for average target test sample CT for target control)−(CT for average reference test−CT for reference control) (see Johnson M R, K Wang, J B Smith, M J Heslin, R B Diasio. Quantitation of dihydropyrimidine dehydrogenase expression by real-time reverse transcription polymerase chain reaction. Anal. Biochem. 2000; 278:175-184). A decrease in mitochondrial DNA content in cells grown in the presence of drug indicated mitochondrial toxicity.
as §1

For data set [2], the system named is mitochondrial DNA (COXII gene) in HepG2 cells. Description: Mitochondrial toxicity assay in HepG2 cells: mitochondrial DNA. The following applies: for IC50: read-out: IC50 MtDNA. It counts as cell-based.
Source text: as §2, §1

The nature of data set [3]: Cellular toxicity assay in HepG2 cells. It counts as cell-based. The following applies: human, read-out: Cytotoxicity. How it is done:
(§3) The toxicity of the compounds was assessed in Vero, human PBM, CEM (human lymphoblastoid), MT-2, and HepG2 cells, as described previously (see Schinazi R. F., Sommadossi J.-P., Saalmann V., Cannon D. L., Xie M.-Y., Hart G. C., Smith G. A. & Hahn E. F. Antimicrob. Agents Chemother. 1990, 34, 1061-67). Cycloheximide was included as positive cytotoxic control, and untreated cells exposed to solvent were included as negative controls. The cytotoxicity IC50 was obtained from the concentration-response curve using the median effective method described previously (see Chou T.-C. & Talalay P. Adv. Enzyme Regul. 1984, 22, 27-55; Belen'kii M. S. & Schinazi R. F. Antiviral Res. 1994, 25, 1-11).

For a further data set, the system named is HBV e antigen (HBeAg). Nature of the data set: HBeAg ELISA in HepAD38 cells (cccDNA-dependent marker). It counts as cell-based. How it is done: Production of secreted HBeAg is predominantly cccDNA-dependent in HepAD38 cells and therefore can serve as a surrogate marker for cccDNA (Ladner, S. K., Otto, M. J., Barker, C. S., Zaifert, K., Wang, G. H., Guo, J. T., Seeger, C., King, R. W. Antimicrob Agents Chemother 1997, 41, 1715-1720; Zhou T, Guo H, Guo J T, Cuconati A, Mehta A, Block T M. Antiviral Res. 2006; 72 (2): 116-24.). The effect on the levels of cccDNA formation was assessed using a cell-based assay that measures HBV e antigen (HBeAg) as a cccDNA-dependent marker in the HepAD38 system. HepAD38 cells were seeded at 50,000 cells/well in collagen-coated 96-well plates with DMEM/F12 medium (Life Technologies) supplemented with 10% heat-inactivated fetal bovine serum. Cells were treated with 0.3 μg/ml tetracycline as needed. Test compounds and controls were added to cells to a final concentration of 10 μM or in a dose response manner ranging from 0.001 to 10 μM. Medium and test compounds were replenished every 5 days in culture. Supernatants were harvested at day-14, clarified by centrifugation at 5000 rpm for 5 min, and stored at −70° C. until use. ELISA—Culture medium was diluted 1:15 in DMEM/F12 and the levels of HBeAg secreted in the culture medium were measured by using HBeAg ELISA kit (BioChain Institute Inc. Hayward, Calif.) according to the manufacturer's protocol. The concentration of compound that reduced levels of secreted HBeAg by 50% (EC50) was determined by linear regression.

The test system of the next data set is Vero. Description: Cellular toxicity assay in Vero cells. The format is cell-based. Conditions: read-out: Cytotoxicity. How it is done:
as §3

Data set [4] can be described thus: Cellular toxicity assay in Vero cells. It counts as cell-based. The following applies: African green monkey, read-out: Cytotoxicity. How it is done: as §3
A further data set deals with human PBM. Nature of the data set: Cellular toxicity assay in human PBM cells. It counts as cell-based. Conditions: read-out: Cytotoxicity. How it is done:
as §3

Data set [5] is described as follows: Cellular toxicity assay in human PBM cells. The format is cell-based. The following applies: human, human PBM cells, read-out: Cytotoxicity. How it is done: as §3
Data set [6] is described as follows: Cellular toxicity assay in CEM cells. The format is cell-based. The following applies: human, CEM lymphoblastoid cells, read-out: Cytotoxicity. How it is done:
as §3

The target in the next data set is T1, HBV Cp149 (Hepatitis B virus genotype D subtype adw, UniProt P03147).
T1 construct: hepatitis B virus core C-terminally truncated protein (HBV Cp149); made in house
T1 sequence (P03147 1-149): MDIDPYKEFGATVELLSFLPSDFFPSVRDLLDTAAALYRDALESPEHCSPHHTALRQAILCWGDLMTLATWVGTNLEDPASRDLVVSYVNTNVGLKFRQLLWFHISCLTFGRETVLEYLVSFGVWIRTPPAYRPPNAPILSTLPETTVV
Description: Capsid formation assay, electron micrographs. Conditions: 25 μM compound. It counts as biochemical. How it is done:
In the absence of compounds which disrupt capsid formation, hepatitis B virus core C-terminally truncated protein (HBV Cp149, protein isolated by reported methods [Zlotnick, A et al; Biochem 1996, 35, 7412-7421] normally assembles into an HBV Cp149 capsid. The purpose of this example was to determine whether putative active agents would disrupt capsid formation, and thus be active as anti-HBV agents. Putative active agents were incubated at a concentration of 25 μM for 1 h at 4° C. with HBV Cp149 at a concentration of 10 μM. Capsid assembly was then promoted by adding 300 mM NaCl, and storing the mixture overnight at 4°. Negative-stain electron micrographs were collected using a JEOL JEM-1400 120 kV electron microscope using uranyl acetate as a contrast agent.

The next data set deals with T2, HBV Cp149 capsids (Hepatitis B virus genotype D subtype adw, UniProt P03147).
T2 construct: hepatitis B virus core C-terminally truncated protein (HBV Cp149); made in house
T2 sequence (P03147 1-149): as above
Description: Disruption of already-formed capsids, electron micrographs. It counts as biochemical. Conditions: 25 μM compound, overnight at 4°, FIG. 2-4. How it is done:
The next question was whether these compounds could disrupt already-formed capsids. Accordingly, the capsids were formed as discussed above (incubation of isolated HBV Cp149 with 300 mM NaCl, stored overnight at 4°). Then, the capsids were incubated with the putative compound (overnight at 4°), and electron micrographs were then taken.

Where [7] appears, read: HepG2 cells, 14-day assay, 10 μM.

Entries after “also recorded” stand apart in the source; their conditions may differ. Read-outs that look alike come from different tables or passages of the source.

With `Nc1ccn([C@@H]2CS[C@H](CO)O2)c(=O)n1` [Compound 3TC, lamivudine, reference compound], in the data set on wild type HBV, the EC50 lay within 0.1 to 0.9 µM. Besides, the EC90 in the data set on wild type HBV (read-out: Anti-HBV activity EC90) is 1 to 9 µM. The “Lactic acid production (% of control)” value in the data set on HepG2 cells is given as 94 ± 20.8 % of control. The IC50 in data set [1] (Homo sapiens, 336 h, HepG2 cells, 14-day assay) is more than 10 µM; in data set [2] (Homo sapiens, HepG2, 336 h) it was more than 10 µM. The inhibition at 10 µM in data set [1] (Homo sapiens, HepG2, 336 h, read-out: % inhibition nDNA) came out at 29.6%; in data set [2] (Homo sapiens, HepG2, 336 h, read-out: % inhibition MtDNA) it was 8.8%. Besides, the “MtDNA (% of control)” value in data set [2] (setting [7]) is on record as 130 (85.7-196) % of control.
For `O=C(Nc1ccc(F)c(F)c1)c1cc(S(=O)(=O)NCc2cn(C3CC3)nn2)ccc1F` [Compound 13, 5-(N-((1-Cyclopropyl-1H-1,2,3-triazol-4-yl)methyl)sulfamoyl)-N-(3,4-difluorophenyl)-2-fluorobenzamide], the CC50 in data set [3] is more than 100 µM; in the data set with Vero it was 66 µM; in data set [4] it was 55.6 µM; in the data set on human PBM it was 64.8 µM; in [5], more than 100 µM. Besides, the EC50 in the data set with wild type HBV was 0.1 to 0.9 µM; in the data set on HBV e antigen (HBeAg) (Hepatitis B virus, HePAD38, 336 h, read-out: Anti-HBeAg activity EC50) it was less than 10 µM. Besides, the “Anti-HBeAg activity, percentage in brackets under EC50” value in the data set with HBV e antigen (HBeAg) (HepAD38 cells, day 14, concentration not printed in the table (method: 10 μM)) was “(86%)”.
On to `Cc1c(C(=O)C(=O)NCc2nn[nH]n2)c(C)n(C)c1C(=O)Nc1ccc(F)c(F)c1` [Compound 82, 4-(2-(((2H-tetrazol-5-yl)methyl)amino)-2-oxoacetyl)-N-(3,4-difluorophenyl)-1,3,5-trimethyl-1H-pyrrole-2-carboxamide], for which the CC50 in data set [3], in data set [4], in data set [6] and in [5] was more than 100 µM throughout. Moreover, the EC50 in the data set with wild type HBV lay within 1 to 9 µM.
Take `Cc1c(C(=O)C(=O)NCC#Cc2nccn2C)c(C)n(C)c1C(=O)Nc1ccc(F)c(F)c1` [Compound 83, N-(3,4-difluorophenyl)-1,3,5-trimethyl-4-(2-((3-(1-methyl-1H-imidazol-2-yl)prop-2-yn-1-yl)amino)-2-oxoacetyl)-1H-pyrrole-2-carboxamide]: the CC50 in [3] was determined as 42 µM; in data set [4], 7 µM; in [6], 4 µM; in [5] it was 7 µM. The EC50 in the data set with wild type HBV was in the range of 1 to 9 µM.
On to `CCOC(=O)C1=C(CN2CCOCC2)NC(c2nccs2)=NC1c1ccc(F)cc1Br` (centres unmarked) [GLS4, Morphothiadine mesilate], for which, on HBV Cp149 (10 μM HBV Cp149, 300 mM NaCl, FIG. 1), the “Effect on capsid formation” value is listed as “misassembled hollow spheres; also recorded: capsid formation was disrupted”. In addition, the “Size of the hollow spheres formed” value at HBV Cp149 (10 μM HBV Cp149, vehicle approximately 40 nm) is 80-100 nm. In addition, the “Effect on already-formed capsids” value on HBV Cp149 capsids is on record as “misassembled hollow spheres; also recorded: the capsids were disrupted”.
In the case of `Nc1ccn([C@H]2CC[C@@H](CO)O2)c(=O)n1` [ddC, reference compound], in the data set on HepG2 cells, the “Lactic acid production (% of control)” value is reported as 196 ± 73.0 % of control. In addition, the IC50 is less than 10 µM in data set [1] (HepG2 cells, 14-day assay) and less than 10 µM in [2] (HepG2 cells, 14-day assay). Moreover, the “% inhibition nDNA” value in [1] (setting [7]) is given as 52.4%. The “MtDNA (% of control)” value in data set [2] is on record as 5.3 (5.0-5.8) % of control. Moreover, in [2] (setting [7]), the “% inhibition MtDNA” value is 97.4%.

For orientation: EC50 means the concentration at which the effect is half-maximal. For orientation: EC90 means the concentration needed for an effect of 90%. As usually defined, the IC50 is the midpoint of a concentration-inhibition curve. One may read the inhibition as the relative decrease from the control value, in per cent.
